Data on three sequences can be found in patent US20230167437A1, “COMPOSITIONS FOR TREATING CANCER WITH KRAS MUTATIONS AND USES THEREOF” (Aadigen, LLC, priority 2020, published 2023).

Holding throughout (type): cell-based, human
The test system of data set [1] is G12V, G12D, G12C KRAS mutant cells and WT KRAS cells. The experiment in a line: Specificity of lead sgRNAs on a large panel of cancer cells harboring different KRAS mutations (indel, proliferation). Conditions: Cas9 mRNA 0.2 μg, gRNA 0.4 μg. On the procedure: (§1) In order to confirm the specificity of sgRNAs targeting G12V, G12C or G12D KRAS mutation, gRNA35T3 targeting G12V, gRNA34T6 targeting G12C, and gRNA35A5 targeting G12D were evaluated on a large panel of cancer cells harboring different KRAS mutations including SW403, SW480, PANC1, PK-45H, PK-1, MIA-PACA, H23, H358, HT-29, HS-68 and LS513. Cas9 mRNA (0.2 μg) and gRNA (0.4 μg) were associated with ADGN peptide at molar ratio 20/1 (peptide/nucleic acid). Cells were cultured in 48 well plate format and treated with free mRNACas9-gRNA, or ADGN/mRNACas9:gRNA complex. Indel frequencies at the endogenous target sequences was evaluated 72 hours after transfection by either T7E1 method and cell proliferation was analyzed over a period of 5 days using CellTiter Glow kits on GlowMax (Promega).

For data set [2], the system named is Mia-PACA, H23 and H358 cells. The experiment in a line: Cell proliferation over 5 days (CellTiter Glow). The following applies: for inhibition of proliferation or survival (FIG. 3B): H23, H358 vs KRAS WT HT29 or HS-68 and PANC1 cells. On the procedure:
(§2) Transfection protocol. The following protocols are reported for 24/48/96 well plate format transfection. Cells should be trypsinized and seeded a day prior transfection Cells were cultured in Dulbecco's Modified Eagle's Medium (DMEM), supplemented with 2 mM glutamine, 1% antibiotics (streptomycin 10,000 μg/mL, penicillin, 10,000 IU/mL) and 10% (w/v) foetal calf serum (FCS), at 37° C. in a humidified atmosphere containing 5% CO2. 96 well plates seeded with 50,000 cells, the day prior transfection, grown to 60-80% confluence and set up to be at around 70% confluence at the day of transfection. Before transfection, cells are washed twice with DMEM (without FBS and pen/strep) (100 μl/well). Cells were then overlaid with 25 μl of complex solution, mixed gently and incubated for 10 min at 37° C.+5% CO2. 50 μl of fresh DMEM (without FBS and Antibiotics) was added and cells were incubated for 2 h at 37° C.+5% CO2 (time of exposure can be adjusted based on sensitivity of the cells). 250 μL of DMEM (containing 10% FCS and 1% antibiotics) were then added without removing the overlay of ADGN peptide/mRNA complexes. Cells were returned to the incubator (37° C., 5% CO2) and analyzed 48 hours to 72 hours post transfection.
(§3) Eight different gRNAs targeting KRAS 34G>T mutant G12C (gRNA34T1, gRNA34T2, gRNA34T3, gRNA34T4, gRNA34T5, gRNA34T6, gRNA34T7 and gRNA34T8) were evaluated on MIA-PACA, H23, H358, H29 and PANC1 cells. Cas9 mRNA (0.1 μg) and gRNA (0.2 μg) were associated with ADGN peptide at molar ratio 20/1 (peptide/nucleic acid). MIA-PACA, H23, H358, PANC1 and HT29 cells were cultured in 48 well plate format and treated with free mRNACas9-gRNA, or ADGN/mRNACas9:gRNA complex. Indel frequencies at the endogenous target sequences was evaluated 72 hours after transfection by either T7E1 method or deep sequencing. Cell proliferation was analyzed over a period of 5 days using CellTiter Glow kits on GlowMax (Promega).
In general terms: ATP-based viability assays read luminescence as a measure of living cells.

Data set [3] deals with KRAS 34G>T mutant G12C. The data set is described as follows: Indel frequencies at the endogenous target sequences (T7E1 / deep sequencing) after ADGN/Cas9 mRNA/gRNA transfection. Conditions: for indel frequencies: deep sequencing, 72 hours after transfection, Cas9 mRNA 0.1 μg, gRNA 0.2 μg; for indel editing and disruption of G12C mutant KRAS (FIG. 3A): H23, H358 vs HT29 and PANC1 cells. On the procedure:
Complex formation with mRNA:gRNA: ADGN peptide/mRNA/gRNA particles were prepared at a 20:1:1 molar ratio. ADGN/Cas9mRNA/sgRNA complexes were prepared at a 20/1/1 molar ratio with 0.5 μg mRNA: 1.5 μg sgRNA and 5% Glucose or DMEM (example for 96 well plates). […] Premixed Cas9 mRNA/gRNA were prepared in sterile water at room temperature in a glass vial (1-4 ml). ADGN-peptide solution was added dropwise (1 drop/sec) under magnetic agitation at 400 rpm to obtain a 1:2 ratio, and incubated for 30 min at room temperature or 37° C. Just before transfection, 150 μl Glucose or DMEM was added and the solution was mixed under magnetic agitation at 400 rpm for 1 minute. Then the solution was incubated for 5 min at 37° C. Then the complexes was ready for cell transfection or IV administration. Prior to IV administration, complexes were diluted in sucrose 5% solution.
as §2, §3, §1

Consider “GTAGTTGGAGCTTGTGGCGT (guide GTAGTTGGAGCTTGTGGCGT; sgRNA, chemical modifications not given here, further chemistry not given here) [gRNA34T6, sgRNA target KRAS G12C mutation (34G>T); PAM AGG]”, for which the “effect on non-targeted KRAS mutant cells and WT KRAS cells (FIGS. 4A-4B)” value in data set [1] is “does not alter G12D and G12V KRAS mutant cells or WT KRAS cells”. Moreover, in data set [2], the “fold more efficient than gRNA34T3 (cell proliferation)” value was determined as 3 fold. For the same sequence, the “fold more efficient than gRNA34T5 (cell proliferation)” value in data set [2] worked out at 2 fold. For the same sequence, in data set [2] (Mia-PACA), the “inhibition of proliferation or survival (FIG. 3B)” value (“inhibition” below) was “specifically inhibit proliferation or survival of Mia-PACA, H23 and H358 cells”. In data set [2] (Mia-PACA, H23 and H358 cells, 5 days), the cell proliferation blocked is recorded as 75%. The results for the indel frequencies in data set [3] (H23 cells), in data set [3] (H358 cells) and in data set [3] (Mia-PACA cells) were 78%, 67% and 71%, respectively. Besides, the indel frequency in data set [3] (KRAS G12C mutated cancer cells) is listed as > 70%; in data set [3] (Mia-PACA, H23 and H358 cells, T7E1, 72 hours, Cas9 mRNA 0.2 μg, gRNA 0.4 μg) it was > 70%. Moreover, the “indel editing and disruption of G12C mutant KRAS (FIG. 3A)” value (“indel editing and disruption” below) in data set [3] (Mia-PACA) was “induced indel editing and efficient disruption of G12C mutant KRAS”.

Turning to “TTG TGG TAG TTG GAG CTT G (guide TTGTGGTAGTTGGAGCTTG; sgRNA, chemical modifications not given here, further chemistry not given here) [gRNA34T5, sgRNA target KRAS G12C mutation (34G>T); PAM TGG]”, the “inhibition” value in data set [2] (Mia-PACA) was “specifically inhibit proliferation or survival of Mia-PACA, H23 and H358 cells”. For the same sequence, the figures for the indel frequencies in data set [3] (H23 cells), in data set [3] (H358 cells) and in data set [3] (Mia-PACA cells) were 68%, 67% and 75%, respectively. The “indel editing and disruption” value in data set [3] (Mia-PACA) was “induced indel editing and efficient disruption of G12C mutant KRAS”.

As to “CTTGTGGTAGTTGGAGCTTG (guide CTTGTGGTAGTTGGAGCTTG; chemistry not given here) [gRNA34T1, sgRNA target KRAS G12C mutation (34G>T); PAM TGG]”, the “inhibition” value in data set [2] (Mia-PACA) is “specifically inhibit proliferation or survival of Mia-PACA, H23 and H358 cells”. Besides, the indel frequencies in data set [3] (H23 cells) was found to be 41%; in data set [3] (H358 cells), 29%; in data set [3] (Mia-PACA cells), 34%. The “indel editing and disruption” value in data set [3] (Mia-PACA) was “induced indel editing and efficient disruption of G12C mutant KRAS”.
